# pKi: −log10 of the molar value. Structures can show the parent of a compound that is named as a salt.
# Target: T1, Human Histamine H3 Receptor (Homo sapiens, UniProt Q9Y5N1)
# T1 construct: expressed in transfected cells; host or cells: HEK293T (stably transfected; membrane preparation)
# Assay: Methyl histamine binding in Human Histamine H3 Receptor Cell Line
# Details: read-out: hH3 Binding Ki
# Description: Evaluation of Methyl histamine binding in Human Histamine H3 Receptor Cell Line
# The affinity of test compounds for the histamine 3 (H3) receptor is evaluated in the following manner. […] Cells are scraped from the plate, transferred to centrifuge tubes, washed one time in PBS by centrifugation in a Sorvall RT7 Plus centrifuge (2000 rpm 10 minutes, 4° C.). The resulting pellets are stored at −80° C. until ready for use. Cells are re-suspended in buffer (50 mM Tris pH=7.5) and placed in a Dounce homogenizer, douncing ten times to homogenize cells. The homogenate is spun down by centrifugation (Sorvall RT7 Plus, 1800 rpm 10 minutes, 4° C.). The supernatant is placed in a Corex tube and spun down by centrifugation (Sorvall RC 5c Plus, 17,000 rpm 20 minutes, 4° C.). The pellet is resuspended in buffer (50 mM Tris, pH 7.5). Protein concentration (ug/ul) is determined using the Micro-BCA Protein Determination. The binding assay is set up in a 96 well microtiter plate in a total volume of 250 uL. Non-specific binding is determined in the presence of 10 uM clobenpropit. The final radioligand concentration is 1 nM. The test compound is serially diluted using the Beckman Biomek2000 to a final approximate range of 100 uM to 100 pM. Membranes are suspended in buffer, homogenized in 2 bursts of ten seconds using a Vitris mechanical homogenizer set at power setting 5. Ten μg of membranes are added to each well. Following a one hour incubation at 30° C., the reaction is terminated by the addition of ice cold buffer and rapid filtration with a Packard Filtermate Harvester through a GF/B filter pre-soaked with 1% PEI for one hour. The plate is dried for one hour at 37° C. and 60 μL Microscint Scintillant is added to each well. The CPM per well is measured on a Packard Top Count NXT. Ki values are determined in nM. […] CPM values are expressed as % specific binding and plotted vs compound concentration. A curve is fitted using a four-parameter logistic fit and the IC50 value is determined. The Ki is calculated from this using the Cheng-Prusoff equation: […]=IC50/1+(L/Kd) where L=concentration of free radioligand used in the assay, and Kd is the dissociation constant of the radioligand for the receptor. L is determined for each experiment by counting an aliquot of the diluted radioligand (corresponding to that added to each well) and the Kd has previously been determined under identical conditions for this cell line/radioligand.
# T1 sequence (Q9Y5N1 whole entry): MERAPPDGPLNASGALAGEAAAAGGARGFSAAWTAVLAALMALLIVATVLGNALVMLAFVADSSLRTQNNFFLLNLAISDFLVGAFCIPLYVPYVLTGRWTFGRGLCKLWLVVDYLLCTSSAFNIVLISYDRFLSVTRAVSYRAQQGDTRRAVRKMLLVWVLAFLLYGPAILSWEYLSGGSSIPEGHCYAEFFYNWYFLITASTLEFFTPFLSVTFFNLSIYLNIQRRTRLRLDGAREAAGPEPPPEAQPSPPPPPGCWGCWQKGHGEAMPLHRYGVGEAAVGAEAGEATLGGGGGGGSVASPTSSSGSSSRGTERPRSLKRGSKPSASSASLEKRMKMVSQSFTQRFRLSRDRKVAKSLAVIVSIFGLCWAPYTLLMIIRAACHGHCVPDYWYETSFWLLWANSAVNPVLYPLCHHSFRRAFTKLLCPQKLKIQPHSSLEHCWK
row,pKi,Structure (SMILES)
1,7.30 to 8.00,"Cc1nc2ccccc2n1-c1ccc(C(=O)N(C)C2CCN(C3CCCC3)CC2)cc1F [Example 120, N-(1-cyclopentylpiperidin-4-yl)-3-fluoro-N-methyl-4-(2-methyl-1H-benzimidazol-1-yl)benzamide]"
2,7.30 to 8.00,"Cc1nc2ccccc2n1-c1ccc(C(=O)N(C)[C@@H]2CCN(C(C)C)C2)c(Cl)c1 [Example 105, 2-chloro-N-methyl-4-(2-methyl-1H-benzimidazol-1-yl)-N-[(3R)-1-(1-methylethyl)pyrrolidin-3-yl]benzamide]"
3,< 7.00,"CC(C)N1CCC(N(C)C(=O)c2ccc(-n3cccn3)cc2)CC1 [Example 85, N-(1-isopropylpiperidin-4-yl)-N-methyl-4-(1H-pyrazol-1-yl)benzamide]"
4,< 7.00,"Cc1nc2ccccc2n1-c1ccc(C(=O)N[C@@H]2CCN(C3CCCCC3)C2)cc1 [Example 137, N-[(3R)-1-cyclohexylpyrrolidin-3-yl]-4-(2-methyl-1H-benzimidazol-1-yl)benzamide]"
5,≥ 8.00,"CN(C(=O)c1ccc(-n2cc3ccccc3n2)cc1)[C@@H]1CCN(C2CCC2)C1 [Example 62, N-[(3R)-1-cyclobutylpyrrolidin-3-yl]-4-(2H-indazol-2-yl)-N-methylbenzamide]"
6,< 7.00,"CN(C(=O)c1ccc(Cn2cnc3ccccc32)cc1)[C@@H]1CCNC1 [Example 36, (R)-4-((1H-benzo[d]imidazol-1-yl)methyl)-N-methyl-N-(pyrrolidin-3-yl)benzamide Hydrochloride]"
7,≥ 8.00,"CC(C)N1CC[C@@H](N(C)C(=O)c2ccc(-n3cc4ccccc4n3)cc2)C1 [Example 61, 4-(2H-indazol-2-yl)-N-[(3R)-1-isopropylpyrrolidin-3-yl]-N-methylbenzamide]"
8,< 7.00,"CN(C(=O)c1ccc(Cn2cnc3ccccc32)cc1)C1CCN(C2CCC2)CC1 [Example 50, 4-(1H-benzimidazol-1-ylmethyl)-N-(1-cyclobutylpiperidin-4-yl)-N-methylbenzamide]"
9,< 7.00,"CN(C(=O)c1ccc(Cn2cnc3ccccc32)cc1)C1CCN(C2CCCC2)CC1 [Example 51, 4-(1H-benzimidazol-1-ylmethyl)-N-(1-cyclopentylpiperidin-4-yl)-N-methylbenzamide]"
10,< 7.00,"Cc1nc2ccccc2n1Cc1ccc(C(=O)N(C)[C@@H]2CCNC2)cc1 [Example 35, N-Methyl-4-[(2-methylbenzimidazol-1-yl)methyl]-N—(R)-pyrrolidin-3-yl-benzamide Hydrochloride]"
11,7.00 to 7.30,"CC(C)N1CCC(N(C)C(=O)c2ccc(Cn3ncc4ccccc43)cc2)CC1 [Example 79, 4-(1H-indazol-1-ylmethyl)-N-(1-isopropylpiperidin-4-yl)-N-methylbenzamide]"
12,7.00 to 7.30,"CC(C)N1CCC(N(C)C(=O)c2ccc(-n3cc4ccccc4n3)cc2)CC1 [Example 69, 4-(2H-indazol-2-yl)-N-(1-isopropylpiperidin-4-yl)-N-methylbenzamide]"
13,< 7.00,"Cc1nc2ccccc2n1Cc1ccc(C(=O)N(C)C2CCN(C3CCC3)CC2)cc1 [Example 47, N-(1-cyclobutylpiperidin-4-yl)-N-methyl-4-[(2-methyl-1H-benzimidazol-1-yl)methyl]benzamide]"
14,7.00 to 7.30,"CN(C(=O)c1ccc(Cn2ncc3ccccc32)cc1)[C@@H]1CCN(C2CCCC2)C1 [Example 78, N-[(3R)-1-cyclopentylpyrrolidin-3-yl]-4-(1H-indazol-1-ylmethyl)-N-methylbenzamide]"
15,7.30 to 8.00,"CN(C(=O)c1ccc(-n2ncc3ccccc32)cc1)[C@@H]1CCN(C2CCCC2)C1 [Example 66, N-[(3R)-1-cyclopentylpyrrolidin-3-yl]-4-(1H-indazol-1-yl)-N-methylbenzamide]"
16,< 7.00,"CN(C(=O)c1ccc(-n2cc3ccccc3n2)cc1)[C@@H]1CCNC1 [Example 60a, (R)-4-Indazol-2-yl-N-methyl-N-pyrrolidin-3-yl-benzamide]"
17,< 7.00,"CN(C(=O)c1ccc(Cn2cccn2)cc1)C1CCN(C2CCCC2)CC1 [Example 93, N-(1-cyclopentylpiperidin-4-yl)-N-methyl-4-(1H-pyrazol-1-ylmethyl)benzamide]"

row,pKi,Structure (SMILES)
1,< 7.00,"Cc1nc2ccccc2n1-c1ccc(C(=O)N(C)C2CCN(C3CCCCC3)CC2)cc1 [Example 33, N-(1-cyclohexylpiperidin-4-yl)-N-methyl-4-(2-methyl-1H-benzimidazol-1-yl)benzamide]"
2,7.30 to 8.00,"Cc1nc2cc(C#N)ccc2n1-c1ccc(C(=O)N(C)[C@@H]2CCN(C3CCCC3)C2)cc1 [Example 56, 4-(5-cyano-2-methyl-1H-benzimidazol-1-yl)-N-[(3R)-1-cyclopentylpyrrolidin-3-yl]-N-methylbenzamide]"
3,≥ 8.00,"Cc1nc2cc(C#N)ccc2n1-c1ccc(C(=O)N(C)[C@@H]2CCN(C3CCC3)C2)cc1 [Example 55, 4-(5-cyano-2-methyl-1H-benzimidazol-1-yl)-N-[(3R)-1-cyclobutylpyrrolidin-3-yl]-N-methylbenzamide]"
4,< 7.00,"CCN(C(=O)c1ccc(-n2c(C)nc3ccccc32)cc1)[C@@H]1CCNC1 [Example 138, (R)—N-ethyl-4-(2-methyl-1H-benzo[d]imidazol-1-yl)-N-(pyrrolidin-3-yl)benzamide hydrochloride]"
5,7.00 to 7.30,"Cc1nc2ccccc2n1Cc1ccc(C(=O)N(C)C2CCN(C(C)C)CC2)cc1 [Example 46, N-(1-isopropylpiperidin-4-yl)-N-methyl-4-[(2-methyl-1H-benzimidazol-1-yl)methyl]benzamide]"
6,< 7.00,CN(C(=O)c1ccc(-n2ncc3ccccc32)cc1)C1CCNCC1 [Example 68]
7,< 7.00,"CN(C(=O)c1ccc(Cn2ncc3ccccc32)cc1)[C@@H]1CCNC1 [Example 75, (R)-4-((1H-indazol-1-yl)methyl)-N-methyl-N-(pyrrolidin-3yl)benzamide]"
8,< 7.00,"CN(C(=O)c1ccc(Cn2ncc3ccccc32)cc1)C1CCN(C2CCCC2)CC1 [Example 81, N-(1-cyclopentylpiperidin-4-yl)-4-(1H-indazol-1-ylmethyl)-N-methylbenzamide]"
9,7.30 to 8.00,"Cc1nc2ccccc2n1-c1ccc(C(=O)N(C)C2CCN(C3CCC3)CC2)cc1 [Example 34, N-(1-cyclobutylpiperidin-4-yl)-N-methyl-4-(2-methyl-1H-benzimidazol-1-yl)benzamide]"
10,≥ 8.00,"CC(C)N1CC[C@@H](N(C)C(=O)c2ccc(-n3ncc4ccccc43)cc2)C1 [Example 64, 4-(1H-indazol-1-yl)-N-[(3R)-1-isopropylpyrrolidin-3-yl]-N-methylbenzamide]"
11,< 7.00,"CN(C(=O)c1ccc(-n2ncc3ccccc32)cc1)C1CCN(C2CCCC2)CC1 [Example 74, N-(1-cyclopentylpiperidin-4-yl)-4-(1H-indazol-1-yl)-N-methylbenzamide]"
12,7.30 to 8.00,"CN(C(=O)c1ccc(Cn2ncc3ccccc32)cc1)[C@@H]1CCN(C2CCC2)C1 [Example 77, N-[(3R)-1-cyclobutylpyrrolidin-3-yl]-4-(1H-indazol-1-ylmethyl)-N-methylbenzamide]"
13,7.30 to 8.00,"Cc1nc2ccccc2n1-c1ccc(C(=O)N(C)[C@@H]2CCN(C3CCC3)C2)cc1F [Example 104, N-[(3R)-1-cyclobutylpyrrolidin-3-yl]-3-fluoro-N-methyl-4-(2-methyl-1H-benzimidazol-1-yl)benzamide]"
14,7.00 to 7.30,"CC(C)N1CCC(N(C)C(=O)c2ccc(Cn3cnc4ccccc43)cc2)CC1 [Example 49, 4-(1H-benzimidazol-1-ylmethyl)-N-(1-isopropylpiperidin-4-yl)-N-methylbenzamide]"
15,< 7.00,"Cc1nc2ccccc2n1Cc1ccc(C(=O)N(C)C2CCN(C3CCCC3)CC2)cc1 [Example 48, N-(1-cyclopentylpiperidin-4-yl)-N-methyl-4-[(2-methyl-1H-benzimidazol-1-yl)methyl]benzamide]"
16,< 7.00,"CN(C(=O)c1ccc(-n2cccn2)cc1)C1CCN(C2CCCC2)CC1 [Example 87, N-(1-cyclopentylpiperidin-4-yl)-N-methyl-4-(1H-pyrazol-1-yl)benzamide]"
17,< 7.00,"CN(C(=O)c1ccc(Cn2cccn2)cc1)C1CCN(C2CCC2)CC1 [Example 92, N-(1-cyclobutylpiperidin-4-yl)-N-methyl-4-(1H-pyrazol-1-ylmethyl)benzamide]"

# Test system: not given
# Assay: not given
# Details: not given
row,melting point,Structure (SMILES)
1,151 to 152 °C,"CN(C(=O)c1ccc(-n2ncc3ccccc32)cc1)[C@@H]1CCN(C2CCCC2)C1 (as salt: hydrochloride) [Example 66, N-[(3R)-1-cyclopentylpyrrolidin-3-yl]-4-(1H-indazol-1-yl)-N-methylbenzamide]"

# From US20080293771A1, “AZACYCLYLBENZAMIDE DERIVATIVES AS HISTAMINE-3 ANTAGONISTS” (Wyeth, priority 2007, published 2008)
